Results published in ChEMBL document CHEMBL1201861, “Genomics of Drug Sensitity in Cancer screening data, Wellcome Trust Sanger Institute”.

How the values were obtained:
Assay in all cases: cells
Conditions in all cases: Homo sapiens
[1] = test system: COLO-824; type: functional, cell-based
Description: SANGER: Inhibition of human COLO-824 cell growth in a cell viability assay.

[2] = test system: COR-L88; type: functional, cell-based;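 further: growth inhibition of COR-L88 cells, read out with a cell viability assay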
Description: SANGER: Inhibition of human COR-L88 cell growth in a cell viability assay.

[3] = test system: CTV-1; type: functional, cell-based;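 further: growth inhibition of the cell line, read out with a cell viability assay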
Description: SANGER: Inhibition of human CTV-1 cell growth in a cell viability assay.

[4] = test system: D-263MG; type: functional, cell-based
Description: SANGER: Inhibition of human D-263MG cell growth in a cell viability assay.

[5] = test system: DOHH-2; type: functional, cell-based;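 further: growth inhibition of human DOHH-2 cells, read out with a cell viability assay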
Description: SANGER: Inhibition of human DOHH-2 cell growth in a cell viability assay.

[6] = test system: DSH1; type: functional, cell-based;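 further: growth inhibition of human DSH1 cells, measured with a cell viability readout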
Description: SANGER: Inhibition of human DSH1 cell growth in a cell viability assay.

[7] = test system: ES4; type: functional, cell-based;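 further: growth inhibition of human ES4 cells, read out by a cell viability assay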
Description: SANGER: Inhibition of human ES4 cell growth in a cell viability assay.

[8] = test system: ES5; type: functional, cell-based;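 further: growth inhibition of human ES5 cells, read out by a cell viability assay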
Description: SANGER: Inhibition of human ES5 cell growth in a cell viability assay.

[9] = test system: ETK-1; type: functional, cell-based;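 further: growth inhibition of human ETK-1 cells, read out with a cell viability assay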
Description: SANGER: Inhibition of human ETK-1 cell growth in a cell viability assay.

[10] = test system: EW-1; type: functional, cell-based;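 further: growth inhibition of the human EW-1 cell line, read out by a cell viability assay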
Description: SANGER: Inhibition of human EW-1 cell growth in a cell viability assay.

[11] = test system: EW-13; type: functional, cell-based;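 further: growth inhibition of EW-13 cells, read out with a cell viability assay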
Description: SANGER: Inhibition of human EW-13 cell growth in a cell viability assay.

[12] = test system: GT3TKB; type: functional, cell-based;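 further: growth inhibition of the cell line, read out with a cell viability assay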
Description: SANGER: Inhibition of human GT3TKB cell growth in a cell viability assay.

[13] = test system: HEL; type: functional, cell-based;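 further: growth inhibition of HEL cells, read out with a cell viability assay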
Description: SANGER: Inhibition of human HEL cell growth in a cell viability assay.

[14] = test system: HL-60; type: functional, cell-based;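 further: growth inhibition of human HL-60 cells, read out with a cell viability assay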
Description: SANGER: Inhibition of human HL-60 cell growth in a cell viability assay.

[15] = test system: HuTu80; type: functional, cell-based, HUTU-80;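 further: growth inhibition of HuTu80 human cells, determined with a cell viability readout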
Description: SANGER: Inhibition of human HUTU-80 cell growth in a cell viability assay.

[16] = test system: IST-MEL1; type: functional, cell-based;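 further: growth inhibition of the cell line, read out with a cell viability assay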
Description: SANGER: Inhibition of human IST-MEL1 cell growth in a cell viability assay.

[17] = test system: JAR; type: functional, cell-based;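 further: growth inhibition of human JAR cells determined with a cell viability assay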
Description: SANGER: Inhibition of human JAR cell growth in a cell viability assay.

[18] = test system: KARPAS-45; type: functional, cell-based;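 further: inhibition of cell line growth, read out through a viability assay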
Description: SANGER: Inhibition of human KARPAS-45 cell growth in a cell viability assay.

[19] = test system: KE-37; type: functional, cell-based;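 further: growth inhibition of KE-37 cells, read out with a cell viability assay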
Description: SANGER: Inhibition of human KE-37 cell growth in a cell viability assay.

[20] = test system: KM-H2; type: functional, cell-based;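 further: growth inhibition of KM-H2 cells, read out by a cell viability assay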
Description: SANGER: Inhibition of human KM-H2 cell growth in a cell viability assay.

[21] = test system: KM12; type: functional, cell-based;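 further: KM12 cell growth inhibition, read out with a cell viability assay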
Description: SANGER: Inhibition of human KM12 cell growth in a cell viability assay.

[22] = test system: KMOE-2; type: functional, cell-based;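 further: growth inhibition of human KMOE-2 cells, read out with a cell viability assay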
Description: SANGER: Inhibition of human KMOE-2 cell growth in a cell viability assay.

[23] = test system: KNS-42; type: functional, cell-based;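 further: growth inhibition of KNS-42 cells, read out with a cell viability assay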
Description: SANGER: Inhibition of human KNS-42 cell growth in a cell viability assay.

[24] = test system: KS-1; type: functional, cell-based;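 further: growth inhibition of KS-1 cells, read out with a cell viability assay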
Description: SANGER: Inhibition of human KS-1 cell growth in a cell viability assay.

[25] = test system: KY821; type: functional, cell-based;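 further: growth inhibition of human KY821 cells, read out by a cell viability assay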
Description: SANGER: Inhibition of human KY821 cell growth in a cell viability assay.

[26] = test system: L-428; type: functional, cell-based
Description: SANGER: Inhibition of human L-428 cell growth in a cell viability assay.

[27] = test system: LAMA-84; type: functional, cell-based;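 further: growth inhibition of LAMA-84 cells, read out with a cell viability assay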
Description: SANGER: Inhibition of human LAMA-84 cell growth in a cell viability assay.

[28] = test system: LB1047-RCC; type: functional, cell-based;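 further: inhibition of cell growth, determined with a cell viability assay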
Description: SANGER: Inhibition of human LB1047-RCC cell growth in a cell viability assay.

[29] = test system: LB831-BLC; type: functional, cell-based;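 further: growth inhibition of LB831-BLC cells, read out with a cell viability assay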
Description: SANGER: Inhibition of human LB831-BLC cell growth in a cell viability assay.

[30] = test system: LNCaP-Clone-FGC; type: functional, cell-based
Description: SANGER: Inhibition of human LNCaP-Clone-FGC cell growth in a cell viability assay.

[31] = test system: LXF-289 cell line; type: functional, cell-based
Description: SANGER: Inhibition of human LXF-289 cell growth in a cell viability assay.

[32] = test system: MEG-01; type: functional, cell-based;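 further: growth inhibition of MEG-01 cells, read out by a cell viability assay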
Description: SANGER: Inhibition of human MEG-01 cell growth in a cell viability assay.

[33] = test system: MFM-223; type: functional, cell-based
Description: SANGER: Inhibition of human MFM-223 cell growth in a cell viability assay.

[34] = test system: MHH-NB-11; type: functional, cell-based;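 further: growth inhibition of human MHH-NB-11 cells, read out by a cell viability assay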
Description: SANGER: Inhibition of human MHH-NB-11 cell growth in a cell viability assay.

[35] = test system: MMAC-SF; type: functional, cell-based;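 further: growth inhibition of human MMAC-SF cells, read out with a cell viability assay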
Description: SANGER: Inhibition of human MMAC-SF cell growth in a cell viability assay.

[36] = test system: MN-60; type: functional, cell-based;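 further: growth inhibition of the MN-60 cell line, determined with a cell viability assay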
Description: SANGER: Inhibition of human MN-60 cell growth in a cell viability assay.

[37] = test system: MOLT-16; type: functional, cell-based;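 further: growth inhibition of human MOLT-16 cells, read out with a cell viability assay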
Description: SANGER: Inhibition of human MOLT-16 cell growth in a cell viability assay.

[38] = test system: Mo; type: functional, cell-based
Description: SANGER: Inhibition of human Mo-T cell growth in a cell viability assay.

[39] = test system: NCI-H1304; type: functional, cell-based;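 further: growth inhibition of the cancer cell line, measured in a cell viability assay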
Description: SANGER: Inhibition of human NCI-H1304 cell growth in a cell viability assay.

[40] = test system: NCI-H82; type: functional, cell-based;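 further: growth inhibition of NCI-H82 cells, measured with a cell viability readout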
Description: SANGER: Inhibition of human NCI-H82 cell growth in a cell viability assay.

[41] = test system: SNU-5; type: functional, cell-based;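 further: cell viability readout used to measure growth inhibition in human NCI-SNU-5 cells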
Description: SANGER: Inhibition of human NCI-SNU-5 cell growth in a cell viability assay.

[42] = test system: NOMO-1; type: functional, cell-based;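 further: growth inhibition of human NOMO-1 cells measured by a cell viability assay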
Description: SANGER: Inhibition of human NOMO-1 cell growth in a cell viability assay.

[43] = test system: NTERA-2-cl-D1; type: functional, cell-based;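 further: inhibition of cell growth, measured with a cell viability assay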
Description: SANGER: Inhibition of human NTERA-S-cl-D1 cell growth in a cell viability assay.

[44] = test system: OCUB-M; type: functional, cell-based;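 further: growth inhibition of the cancer cell line, read out through a cell viability assay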
Description: SANGER: Inhibition of human OCUB-M cell growth in a cell viability assay.

[45] = test system: OS-RC-2; type: functional, cell-based;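 further: growth inhibition of human OS-RC-2 cells, measured by a cell viability assay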
Description: SANGER: Inhibition of human OS-RC-2 cell growth in a cell viability assay.

[46] = test system: RCC10RGB; type: functional, cell-based;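 further: growth inhibition of human RCC10RGB cells, read out by a cell viability assay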
Description: SANGER: Inhibition of human RCC10RGB cell growth in a cell viability assay.

[47] = test system: RH-1; type: functional, cell-based;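 further: growth inhibition of human RH-1 cells, read out with a cell viability assay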
Description: SANGER: Inhibition of human RH-1 cell growth in a cell viability assay.

[48] = test system: SCH; type: functional, cell-based;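 further: growth inhibition of human SCH cells, read out in a cell viability assay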
Description: SANGER: Inhibition of human SCH cell growth in a cell viability assay.

[49] = test system: SK-LMS-1; type: functional, cell-based;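 further: growth inhibition of human SK-LMS-1 cells, read out with a cell viability assay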
Description: SANGER: Inhibition of human SK-LMS-1 cell growth in a cell viability assay.

[50] = test system: SK-UT-1; type: functional, cell-based;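 further: growth inhibition of SK-UT-1 cells, measured by a cell viability assay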
Description: SANGER: Inhibition of human SK-UT-1 cell growth in a cell viability assay.

[51] = test system: 8-MG-BA; type: functional, cell-based;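 further: growth inhibition of 8-MG-BA cells, read out with a cell viability assay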
Description: SANGER: Inhibition of human 8-MG-BA cell growth in a cell viability assay.

[52] = test system: A3-KAW; type: functional, cell-based;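 further: growth inhibition of human A3-KAW cells, read out with a cell viability assay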
Description: SANGER: Inhibition of human A3-KAW cell growth in a cell viability assay.

[53] = test system: A388; type: functional, cell-based;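 further: growth inhibition of human A388 cells, read out with a cell viability assay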
Description: SANGER: Inhibition of human A388 cell growth in a cell viability assay.

[54] = test system: A498; type: functional, cell-based;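 further: growth inhibition of human A498 cells, read out with a cell viability assay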
Description: SANGER: Inhibition of human A498 cell growth in a cell viability assay.

[55] = test system: A704; type: functional, cell-based;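 further: growth inhibition of human A704 cells, read out with a cell viability assay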
Description: SANGER: Inhibition of human A704 cell growth in a cell viability assay.

[56] = test system: BB49-HNC; type: functional, cell-based
Description: SANGER: Inhibition of human BB49-HNC cell growth in a cell viability assay.

[57] = test system: BE-13; type: functional, cell-based
Description: SANGER: Inhibition of human BE-13 cell growth in a cell viability assay.

[58] = test system: BT-474; type: functional, cell-based
Description: SANGER: Inhibition of human BT-474 cell growth in a cell viability assay.

[59] = test system: BV-173; type: functional, cell-based
Description: SANGER: Inhibition of human BV-173 cell growth in a cell viability assay.

[60] = test system: C2BBe1; type: functional, cell-based
Description: SANGER: Inhibition of human C2BBe1 cell growth in a cell viability assay.

[61] = test system: C8166; type: functional, cell-based
Description: SANGER: Inhibition of human C8166 cell growth in a cell viability assay.

[62] = test system: TE-10; type: functional, cell-based
Description: SANGER: Inhibition of human TE-10 cell growth in a cell viability assay.

[63] = test system: TE-11; type: functional, cell-based
Description: SANGER: Inhibition of human TE-11 cell growth in a cell viability assay.

[64] = test system: TE-6; type: functional, cell-based
Description: SANGER: Inhibition of human TE-6 cell growth in a cell viability assay.

[65] = test system: CCRF-CEM; type: functional, cell-based
Description: SANGER: Inhibition of human CCRF-CEM cell growth in a cell viability assay.

[66] = test system: COLO-684; type: functional, cell-based
Description: SANGER: Inhibition of human COLO-684 cell growth in a cell viability assay.

Measured: IC50

COc1cc(C)c(Sc2cnc(NC(=O)c3ccc(CNC(C)C(C)(C)C)cc3)s2)cc1C(=O)N1CCN(C(C)=O)CC1 (stereo unspecified)
8.9 µM: [45]
6.56 µM: [7]
4.75 µM: [37]
2.84 µM: [21]
1.21 µM: [24]
8.79 µM: [43]
6.3 µM: [3]
2.24 µM: [9]
6.16 µM: [29]
3.11 µM: [10]
9.12 µM: [31]
> 10.2 µM: all other assays above
